Laboratory results from publication PMC2918699 (European journal of medicinal chemistry, 2010).

Tests used:
yeast = yeast assays, mimics calorie restriction by stimulating Sir2; cited from earlier work
p27 = p27 in HT-29 tumors by western blotting and immunohistochemistry; format: in vivo, SCID mice; conditions: western blotting and immunohistochemistry of HT-29 tumors
HT-29 xenograft = HT-29 xenograft tumor growth in SCID mice; format: in vivo; conditions: 10 mg/kg i.p. once daily, after 3 weeks
[1] = GC-MS analysis of stilbenes in mice serum; format: in vivo, SCID mice; conditions: GC-MS retention time and mass spectrum compared to standards
PCNA = PCNA in HT-29 tumors by western blotting and immunohistochemistry; format: in vivo, SCID mice; conditions: western blotting and immunohistochemistry of HT-29 tumors

SMILES | Configuration (cis/trans) found in the serum [1] | Tumor weight decrease compared to the control (HT-29 xenograft) [%] | other results
Oc1ccc(/C=C/c2cc(O)cc(O)c2)cc1 [Compound 17, Resveratrol] |  |  | extended lifespan (yeast): 70%
COc1ccc(/C=C/c2cc(OC)cc(OC)c2)cc1 [Compound 9, (E)-1,3-dimethoxy-5-(4-methoxystyryl)benzene] | retained their configurations | 21 | p27 levels in tumors (p27): increased; Tumor volume lower compared to the control (HT-29 xenograft): 45%; PCNA levels in tumors (PCNA): lowered
COc1cc(/C=C\c2ccc(N)cc2)cc(OC)c1 [Compound 4, (Z)-4-(3,5-dimethoxystyryl)aniline] | isomerized to 3 |  | 
COc1ccc(/C=C\c2cc(OC)cc(OC)c2)cc1 [Compound 10, (Z)-1,3-dimethoxy-5-(4-methoxystyryl)benzene] | retained their configurations | 15 | 

Second part, led by results:

Configuration (cis/trans) found in the serum [1] | SMILES | Tumor weight decrease compared to the control (HT-29 xenograft) [%] | other results
retained their configurations | COC(=O)c1ccc(/C=C\c2cc(OC)cc(OC)c2)cc1 [Compound 6, (Z)- Methyl 4-(3,5-dimethoxystyryl)benzoate] |  | 
retained their configurations | COC(=O)c1ccc(/C=C/c2cc(OC)cc(OC)c2)cc1 [Compound 5, (E)-Methyl-4-(3,5-dimethoxystyryl)benzoate] |  | 
